Reference: patent publication US20100298384A1, “NOVEL OXAZOLIDINONE COMPOUNDS AS ANTIINFECTIVE AGENTS” (priority 2006, published 2010)

| Compound | melting point [°C] |
| --- | --- |
| CC(=O)NC[C@H]1CN(c2ccc(-c3csc(Cn4cncn4)n3)c(F)c2)C(=O)O1 (stereo in doubt) [Example 14, N-{3-[3-fluoro-4-(2[1,2,4]triazol-1-ylmethyl-thiazol-4-yl)-phenyl]-2-oxo-oxazolidin-5-ylmethyl}-acetamide] | 154 to 156 |
| CC(=O)NC[C@H]1CN(c2ccc(-c3csc(Cn4ccnc4)n3)c(F)c2)C(=O)O1 (stereo in doubt) [Example 16, N-{3-[3-Fluoro-4-(2-imidazol-1-ylmethyl-thiazol-4-yl)-phenyl]-2-oxo-oxazolidin-5-ylmethyl}-acetamide] | 154 to 156 |
| CC(=O)NC[C@H]1CN(c2ccc(-n3cnc(Cn4ccnc4)c3)c(F)c2)C(=O)O1 (stereo in doubt) [Example 24, N-{3-[3-fluoro-4-(4-imidazol-1-ylmethyl-imidazol-1-yl)-phenyl]-2-oxo-oxazolidin-5-ylmethyl}-acetamide] | 180 to 182 |
| CC(=O)NC[C@H]1CN(c2ccc(-n3cnc(Cn4cncn4)c3)c(F)c2)C(=O)O1 (stereo in doubt) [Example 26, N-{3-[3-fluoro-4-(4-[1,2,4]triazol-1-ylmethyl-imidazol-1-yl)-phenyl]-2-oxo-oxazolidin-5-ylmethyl}-acetamide] | 171 to 173 |
| CC(=O)NC[C@H]1CN(c2ccc(-n3cnc(Cn4cccn4)c3)c(F)c2)C(=O)O1 (stereo in doubt) [Example 26, N-{3-[3-fluoro-4-(4-pyrazol-1-ylmethyl-imidazol-1-yl)-phenyl]-2-oxo-oxazolidin-5-ylmethyl}-acetamide] | 158 to 160 |
| COC(=O)NC[C@H]1CN(c2ccc(-n3cnc(Cn4ccnc4)c3)c(F)c2)C(=O)O1 (stereo in doubt) [Example 43, Methyl {3-[3-fluoro-4-(4-imidazol-1-ylmethyl-imidazol-1-yl)-phenyl]-2-oxo-oxazolidin-5-ylmethyl}-carbamate] | 78 to 80 |
| CCOC(=O)c1cn(Cc2cn(-c3ccc(N4C[C@H](CNC(=O)OC)OC4=O)cc3F)nn2)nc1N (stereo in doubt) [Example 47, Ethyl 3-amino-1-(1-{2-fluoro-4-[5-(methoxycarbonylamino-methyl)-2-oxo-oxazolidin-3-yl]-phenyl}-1H-[1,2,3]triazol-4-ylmethyl)-1H-pyrazole-4-carboxylate] | 98 to 100 |
| CC(=S)NC[C@H]1CN(c2ccc(-n3cnc(Cn4ccnc4)c3)c(F)c2)C(=O)O1 (stereo in doubt) [Example 65, N-{3-[3-fluoro-4-(4-imidazol-1-ylmethyl-imidazol-1-yl)-phenyl]-2-oxo-oxazolidin-5-ylmethyl}-thioacetamide] | 160 to 162 |
| CC(=S)NC[C@H]1CN(c2ccc(-n3cnc(Cn4cccn4)c3)c(F)c2)C(=O)O1 (stereo in doubt) [Example 66, N-{3-[3-fluoro-4-(4-pyrazol-1-ylmethyl-imidazol-1-yl)-phenyl]-2-oxo-oxazolidin-5-ylmethyl}-thioacetamide] | 137 to 139 |
| CC(=O)NC[C@H]1CN(c2ccc(-c3nc(Cn4ccnc4)co3)c(F)c2)C(=O)O1 [Example 6, N-{3-[3-fluoro-4-(4-imidazol-1-ylmethyl-oxazol-2-yl)-phenyl]-2-oxo-oxazolidin-5(S)-ylmethyl}-acetamide] | 198 to 200 |
| CC(=O)NC[C@H]1CN(c2ccc(-c3nc(Cn4ccnc4)cs3)c(F)c2)C(=O)O1 [Example 10, N-{3-[3-fluoro-4-(4-imidazol-1-ylmethyl-thiazol-2-yl)-phenyl]-2-oxo-oxazolidin-5(S)-ylmethyl}-acetamide] | 192 to 194 |
| CC(=O)NC[C@H]1CN(c2ccc(-c3nc(Cn4cncn4)cs3)c(F)c2)C(=O)O1 [Example 11, N-{3-[3-fluoro-4-(4-[1,2,4]triazol-1-ylmethyl-thiazol-2-yl)-phenyl]-2-oxo-oxazolidin-5(S)-ylmethyl}-acetamide] | 196 to 198 |
| CC(=O)NC[C@H]1CN(c2ccc(-c3nc(Cn4cccn4)cs3)c(F)c2)C(=O)O1 [Example 12, N-{3-[3-fluoro-4-(4-pyrazol-1-ylmethyl-thiazol-2-yl)-phenyl]-2-oxo-oxazolidin-5(S)-ylmethyl}-acetamide] | 178 to 180 |
| CC(=O)NC[C@H]1CN(c2ccc(-n3cc(Cn4ccnc4)cn3)c(F)c2)C(=O)O1 [Example 18, N-{3-[3-fluoro-4-(4-imidazol-1-ylmethyl-pyrazol-1-yl)phenyl]-2-oxo-oxazolidin-5-(8)-ylmethyl}-acetamide] | 171 to 172 |
| CC(=O)NC[C@H]1CN(c2ccc(-n3cc(Cn4cccn4)cn3)c(F)c2)C(=O)O1 [Example 20, N-{3-[3-fluoro-4-(4-pyrazol-1-ylmethyl-pyrazol-1-yl)-phenyl]-2-oxo-oxazolidin-5-(S)-ylmethyl}-acetamide] | 186 to 187 |
| CC(=O)NC[C@H]1CN(c2ccc(-n3cc(Cn4cncn4)cn3)c(F)c2)C(=O)O1 [Example 22, N-{3-[3-fluoro-4-(4-[1,2,4]triazol-1-ylmethyl-pyrazol-1-yl)-phenyl]-2-oxo-oxazolidin-5(S)-ylmethyl}-acetamide] | 126 to 127 |
| CC(=O)NC[C@H]1CN(c2ccc(-n3cc(Cn4ccc(C(F)(F)F)n4)nn3)c(F)c2)C(=O)O1 [Example 32] | 130 to 140 |

| Compound | melting point [°C] |
| --- | --- |
| COC(=O)NC[C@H]1CN(c2ccc(-c3nc(Cn4ccnc4)cs3)c(F)c2)C(=O)O1 [Example 33] | 165 to 167 |
| COC(=O)NC[C@H]1CN(c2ccc(-c3nc(Cn4cccn4)co3)c(F)c2)C(=O)O1 [Example 34, Methyl {3-[3-fluoro-4-(4-pyrazol-1-ylmethyl-oxazol-2-yl)-phenyl]-2-oxo-oxazolidin-5(S)-ylmethyl}-carbamate] | 170 to 172 |
| COC(=O)NC[C@H]1CN(c2ccc(-c3nc(Cn4cncn4)cs3)c(F)c2)C(=O)O1 [Example 35, Methyl {3-[3-fluoro-4-(4-[1,2,4]triazol-1-ylmethyl-thiazol-2-yl)-phenyl]-2-oxo-oxazolidin-5(S)-ylmethyl}-carbamate] | 199 to 201 |
| COC(=O)NC[C@H]1CN(c2ccc(-c3nc(Cn4cccn4)cs3)c(F)c2)C(=O)O1 [Example 36, Methyl {3-[3-fluoro-4-(4-pyrazol-1-ylmethyl-thiazol-2-yl)-phenyl]-2-oxo-oxazolidin-5(S)-ylmethyl}-carbamate] | 142 to 144 |
| COC(=O)NC[C@H]1CN(c2ccc(-n3cnc(Cn4cncn4)c3)c(F)c2)C(=O)O1 [Example 45, Methyl {3-[3-fluoro-4-(4-[1,2,4]-triazol-1-ylmethyl-imidazol-1-yl)-phenyl]-2-oxo-oxazolidin-5-ylmethyl}-carbamate] | 184 to 186 |
| COC(=O)NC[C@H]1CN(c2ccc(-n3cc(Cn4cncn4)nn3)c(F)c2)C(=O)O1 [Example 48] | 170 |
| COC(=O)NC[C@H]1CN(c2ccc(-n3cc(Cn4ccc(C(F)(F)F)n4)nn3)c(F)c2)C(=O)O1 [Example 49] | 129 to 130 |
| COC(=S)NC[C@H]1CN(c2ccc(-c3nc(Cn4cccn4)co3)c(F)c2)C(=O)O1 [Example 50, O-methyl {3-[3-fluoro-4-(4-pyrazol-1-ylmethyl-oxazol-2-yl)-phenyl]-2-oxo-oxazolidin-5(S)-ylmethyl}-thiocarbamate] | 145 to 147 |
| COC(=S)NC[C@H]1CN(c2ccc(-c3nc(Cn4ccnc4)cs3)c(F)c2)C(=O)O1 [Example 51, O-methyl {3-[3-fluoro-4-(4-imidazol-1-ylmethyl-thiazol-2-yl)-phenyl]-2-oxo-oxazolidin-5(S)-ylmethyl}-thiocarbamate] | 169 to 171 |
| COC(=S)NC[C@H]1CN(c2ccc(-c3nc(Cn4cncn4)cs3)c(F)c2)C(=O)O1 [Example 52, O-methyl {3-[3-fluoro-4-(4-[1,2,4]triazol-1-ylmethyl-thiazol-2-yl)-phenyl]-2-oxo-oxazolidin-5(S)-ylmethyl}-thiocarbamate] | 189 to 191 |
| COC(=S)NC[C@H]1CN(c2ccc(-c3nc(Cn4cccn4)cs3)c(F)c2)C(=O)O1 [Example 53, O-methyl {3-[3-fluoro-4-(4-pyrazol-1-ylmethyl-thiazol-2-yl)-phenyl]-2-oxo-oxazolidin-5(S)-ylmethyl}-thiocarbamate] | 157 to 158 |
| COC(=S)NC[C@H]1CN(c2ccc(-n3cc(Cn4ccc(C(F)(F)F)n4)nn3)c(F)c2)C(=O)O1 [Example 59] | 179 to 180 |
| CC(=S)NC[C@H]1CN(c2ccc(-c3nc(Cn4ccnc4)cs3)c(F)c2)C(=O)O1 [Example 60, N-{3-[3-fluoro-4-(4-imidazol-1-ylmethyl-thiazol-2-yl)-phenyl]-2-oxo-oxazolidin-5(S)-ylmethyl}-thioacetamide] | 169 to 171 |
| CC(=S)NC[C@H]1CN(c2ccc(-c3nc(Cn4cncn4)cs3)c(F)c2)C(=O)O1 [Example 61, N-{3-[3-fluoro-4-(4-[1,2,4]triazol-1-ylmethyl-thiazol-2-yl)-phenyl]-2-oxo-oxazolidin-5(S)-ylmethyl}-thioacetamide] | 180 to 182 |
| CC(=S)NC[C@H]1CN(c2ccc(-c3nc(Cn4cccn4)cs3)c(F)c2)C(=O)O1 [Example 62, N-{3-[3-fluoro-4-(4-pyrazole-1-ylmethyl-thiazol-2-yl)-phenyl]-2-oxo-oxazolidin-5(S)-ylmethyl}-thioacetamide] | 166 to 168 |
| CC(=S)NC[C@H]1CN(c2ccc(-c3csc(Cn4cncn4)n3)c(F)c2)C(=O)O1 [Example 63, N-{3-[3-Fluoro-4-(2[1,2,4]-triazol-1-ylmethyl-thiazol-4-yl)-phenyl]-2-oxo-oxazolidin-5-ylmethyl}-thioacetamide] | 82 to 84 |
| CC(=S)NC[C@H]1CN(c2ccc(-n3cnc(Cn4cncn4)c3)c(F)c2)C(=O)O1 [Example 67, N-{3-[3-fluoro-4-(4-[1,2,4]triazol-1-ylmethyl-imidazol-1-yl)-phenyl]-2-oxo-oxazolidin-5-ylmethyl}-thioacetamide] | 171 to 173 |
